Experimental data: the supplement of paper PMC6045584
± gives the standard deviation of the averaged measurements.

Columns and labels:
[1] = compound: COc1ccc(-c2cc3c(C)nc(N)nc3n([C@H]3CC[C@H](OCCO)CC3)c2=O)cn1; assay: surviving fraction relative to DMSO-only wells; higher = less growth inhibition; details: exposure time: 5 days
In short: (§1)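 A line counted only if its three screens reached replicate Pearson r >0.7 and median Z' >0.3. Tumour cells in log phase were seeded at 250–500 per well in 384-well plates and, after 24 hours, kept in continuous contact with inhibitors at 0.5, 1, 5, 10, 50, 100, 500 and 1000 nM for five days. Surviving fraction was taken from CellTiter-Glo luminescence relative to the median of DMSO-only wells.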

IMATINIB = compound: Cc1ccc(NC(=O)c2ccc(CN3CCN(C)CC3)cc2)cc1Nc1nccc(-c2cccnc2)n1 [IMATINIB]; assay: as above; details: exposure time: 5 days
In short: as §1

Test System | surviving fraction ([1]; 0.5 nM) | surviving fraction ([1]; 1 nM) | surviving fraction ([1]; 5 nM) | surviving fraction ([1]; 10 nM) | surviving fraction ([1]; 50 nM) | surviving fraction ([1]; 100 nM) | surviving fraction ([1]; 500 nM) | surviving fraction ([1]; 1000 nM) | surviving fraction (IMATINIB; 10 nM) | surviving fraction (IMATINIB; 50 nM) | surviving fraction (IMATINIB; 100 nM) | surviving fraction (IMATINIB; 500 nM) | surviving fraction (IMATINIB; 1000 nM) | surviving fraction (IMATINIB; 1 nM) | surviving fraction (IMATINIB; 5 nM) | surviving fraction (IMATINIB; 0.5 nM)
LM7 BONE | 0.996 ± 0.022 | 0.896 ± 0.031 | 0.947 ± 0.019 | 0.906 ± 0.057 | 0.691 ± 0.023 | 0.578 ± 0.022 | 0.205 ± 0.012 | 0.0677 ± 0.005 | 1.11 ± 0.082 | 1.19 ± 0.074 | 1.17 ± 0.063 | 1.04 ± 0.016 | 0.959 ± 0.11 |  |  | 
LNCAP PROSTATE | 0.877 ± 0.095 | 0.872 ± 0.045 | 0.759 ± 0.026 | 0.622 ± 0.041 | 0.226 ± 0.024 | 0.099 ± 0.012 | 0.0437 ± 0.0051 | 0.035 ± 0.0044 |  | 0.967 ± 0.14 | 0.986 ± 0.049 |  |  | 1.1 ± 0.1 | 0.968 ± 0.068 | 
MCF7 BREAST | 0.875 ± 0.029 | 0.851 ± 0.016 | 0.807 ± 0.027 | 0.764 ± 0.058 | 0.527 ± 0.0077 | 0.358 ± 0.0078 | 0.185 ± 0.0036 | 0.181 ± 0.0076 | 0.955 ± 0.062 | 1.04 ± 0.018 | 1.01 ± 0.033 | 1.05 ± 0.043 | 0.986 ± 0.014 |  | 0.97 ± 0.03 | 0.988 ± 0.064
MDAMB134 BREAST | 0.973 ± 0.12 | 0.869 ± 0.11 | 0.864 ± 0.061 | 0.839 ± 0.19 | 0.639 ± 0.11 | 0.682 ± 0.064 | 0.361 ± 0.0042 | 0.293 ± 0.05 | 0.86 ± 0.057 | 1.02 ± 0.093 | 1.11 ± 0.024 | 0.994 ± 0.17 | 0.814 ± 0.15 |  |  | 0.896 ± 0.08
MDAMB157 BREAST | 0.899 ± 0.061 | 0.963 ± 0.12 | 0.802 ± 0.051 | 0.812 ± 0.042 | 0.705 ± 0.079 | 0.618 ± 0.088 | 0.432 ± 0.042 | 0.332 ± 0.02 |  |  | 0.939 ± 0.021 | 0.956 ± 0.018 | 0.855 ± 0.11 | 1.01 ± 0.028 | 1.02 ± 0.018 | 
MDAMB231 BREAST | 0.98 ± 0.011 | 0.985 ± 0.021 | 0.949 ± 0.016 | 0.902 ± 0.018 | 0.645 ± 0.0077 | 0.495 ± 0.013 | 0.182 ± 0.0094 | 0.145 ± 0.0081 | 1.03 ± 0.022 | 1 ± 0.058 | 1.01 ± 0.027 | 0.968 ± 0.042 | 0.96 ± 0.024 | 1.03 ± 0.04 | 1.01 ± 0.039 | 0.9973 ± 0.0088
MDAMB361 BREAST | 0.905 ± 0.065 | 0.953 ± 0.1 | 0.852 ± 0.056 | 0.775 ± 0.096 | 0.78 ± 0.082 | 0.604 ± 0.026 | 0.248 ± 0.02 | 0.205 ± 0.028 | 0.878 ± 0.046 | 0.869 ± 0.082 | 0.879 ± 0.081 |  | 0.827 ± 0.087 | 0.879 ± 0.079 | 0.826 ± 0.018 | 0.927 ± 0.066
MDAMB436 BREAST | 0.881 ± 0.036 | 0.856 ± 0.055 | 0.8 ± 0.031 | 0.75 ± 0.051 | 0.582 ± 0.027 | 0.432 ± 0.023 | 0.265 ± 0.016 | 0.2398 ± 0.0015 | 0.998 ± 0.093 | 1.04 ± 0.14 |  | 1.1 ± 0.12 |  | 0.984 ± 0.11 | 0.985 ± 0.079 | 1.01 ± 0.078
MDAMB453 BREAST | 1.08 ± 0.075 | 1.03 ± 0.078 | 1.05 ± 0.054 | 1.06 ± 0.069 | 0.603 ± 0.051 | 0.312 ± 0.047 | 0.0933 ± 0.0086 | 0.0587 ± 0.016 | 1.12 ± 0.1 | 1.18 ± 0.034 | 1.06 ± 0.034 | 1.082 ± 0.0067 | 1.04 ± 0.011 | 1.1 ± 0.086 | 1.13 ± 0.051 | 
MDAMB468 BREAST | 0.971 ± 0.045 | 0.965 ± 0.12 | 0.989 ± 0.024 | 1 ± 0.078 | 0.857 ± 0.019 | 0.733 ± 0.021 | 0.255 ± 0.019 | 0.0787 ± 0.0084 | 1.06 ± 0.066 | 1.09 ± 0.081 | 1.18 ± 0.032 | 1.103 ± 0.01 | 1.06 ± 0.06 | 1.05 ± 0.059 | 1.01 ± 0.02 | 0.997 ± 0.075
MFM223 BREAST | 1.09 ± 0.086 | 1.1 ± 0.063 | 1.04 ± 0.061 | 0.993 ± 0.079 | 0.674 ± 0.071 | 0.432 ± 0.016 | 0.127 ± 0.012 | 0.0725 ± 0.0048 | 1.19 ± 0.14 | 1.19 ± 0.063 | 1.17 ± 0.1 | 1.18 ± 0.055 | 1.15 ± 0.052 | 1.24 ± 0.041 | 1.13 ± 0.057 | 1.27 ± 0.17
MG63 BONE | 0.984 ± 0.0072 | 0.97 ± 0.04 | 0.9233 ± 0.009 | 0.833 ± 0.035 | 0.539 ± 0.021 | 0.348 ± 0.011 | 0.137 ± 0.0046 | 0.0953 ± 0.0011 | 1.09 ± 0.035 | 1.09 ± 0.053 | 1.08 ± 0.034 |  |  | 1.05 ± 0.029 | 1.1 ± 0.03 | 1.08 ± 0.028
MHM BONE | 0.999 ± 0.011 | 0.967 ± 0.013 | 0.99 ± 0.012 | 0.957 ± 0.018 | 0.888 ± 0.029 | 0.823 ± 0.013 | 0.478 ± 0.015 | 0.29 ± 0.0046 | 1.09 ± 0.045 |  |  | 1.08 ± 0.029 |  | 1.03 ± 0.059 | 1.09 ± 0.043 | 1.07 ± 0.032
NCIH441 LUNG | 1.03 ± 0.068 | 1.03 ± 0.071 | 1.06 ± 0.064 | 0.966 ± 0.058 | 0.886 ± 0.048 | 0.789 ± 0.028 | 0.425 ± 0.021 | 0.412 ± 0.015 | 1.14 ± 0.053 | 1.03 ± 0.12 | 1.06 ± 0.082 |  | 1.16 ± 0.15 | 1.14 ± 0.076 |  | 1.175 ± 0.0068
NOS1 BONE | 1.13 ± 0.032 | 0.989 ± 0.13 | 1.2 ± 0.16 | 0.96 ± 0.1 | 0.6 ± 0.048 | 0.448 ± 0.029 | 0.158 ± 0.0032 | 0.095 ± 0.015 | 1.13 ± 0.11 |  | 1.06 ± 0.15 | 0.883 ± 0.14 | 0.898 ± 0.039 | 1.12 ± 0.041 | 1.2 ± 0.085 | 1.18 ± 0.11
NY BONE | 0.925 ± 0.027 | 0.916 ± 0.038 | 0.909 ± 0.022 | 0.84 ± 0.047 | 0.668 ± 0.029 | 0.602 ± 0.028 | 0.369 ± 0.019 | 0.317 ± 0.0068 | 1.1 ± 0.013 | 1.107 ± 0.0076 | 1.11 ± 0.025 | 1.04 ± 0.043 | 1.03 ± 0.019 | 1.08 ± 0.022 | 1.12 ± 0.051 | 1.08 ± 0.021
OS25HAL BONE | 0.95 ± 0.012 | 0.9753 ± 0.0029 | 0.9657 ± 0.0091 | 0.86 ± 0.041 | 0.603 ± 0.042 | 0.35 ± 0.066 | 0.13 ± 0.0092 | 0.0623 ± 0.0049 | 1.06 ± 0.027 | 1.08 ± 0.013 | 1.1 ± 0.017 |  |  | 1.04 ± 0.035 | 1.03 ± 0.021 | 1.08 ± 0.041
OSHN BONE | 1.03 ± 0.024 | 1.03 ± 0.035 | 1.02 ± 0.029 | 1.01 ± 0.03 | 1.1 ± 0.0058 | 1.03 ± 0.034 | 0.447 ± 0.016 | 0.267 ± 0.0045 | 1.12 ± 0.012 | 1.16 ± 0.013 | 1.14 ± 0.017 |  | 1.1 ± 0.051 | 1.126 ± 0.0095 | 1.1 ± 0.033 | 1.13 ± 0.024
PCI30 HEADNECK | 0.935 ± 0.034 | 0.947 ± 0.079 | 0.902 ± 0.023 | 0.963 ± 0.1 | 0.716 ± 0.028 | 0.495 ± 0.033 | 0.181 ± 0.004 | 0.151 ± 0.0076 | 1.08 ± 0.11 | 1.13 ± 0.042 | 1.13 ± 0.024 | 1.06 ± 0.067 | 0.981 ± 0.038 | 0.943 ± 0.017 |  | 
RDES SOFT TISSUE | 1.23 ± 0.074 | 1.24 ± 0.12 | 1.13 ± 0.1 | 1.22 ± 0.097 | 1.34 ± 0.055 | 1.03 ± 0.038 | 0.301 ± 0.015 | 0.166 ± 0.021 | 1.22 ± 0.019 | 1.12 ± 0.1 | 1.21 ± 0.1 | 1.24 ± 0.13 | 1.18 ± 0.082 | 1.45 ± 0.048 | 1.21 ± 0.1 | 1.37 ± 0.084
S68 BREAST | 0.953 ± 0.24 | 0.88 ± 0.11 | 0.993 ± 0.2 | 0.845 ± 0.18 | 0.334 ± 0.082 | 0.16 ± 0.02 | 0.0503 ± 0.0051 | 0.034 ± 0.001 |  | 1.25 ± 0.47 | 1.28 ± 0.29 | 1.11 ± 0.28 | 0.868 ± 0.081 | 0.996 ± 0.18 | 1.13 ± 0.17 | 0.783 ± 0.22
SAOS2 BONE | 1.11 ± 0.018 | 1.07 ± 0.016 | 0.98 ± 0.083 | 0.931 ± 0.04 | 0.636 ± 0.018 | 0.52 ± 0.014 | 0.174 ± 0.0087 | 0.0977 ± 0.0011 | 1.22 ± 0.063 | 1.22 ± 0.079 | 1.2 ± 0.075 | 1.16 ± 0.029 | 1.17 ± 0.097 | 1.14 ± 0.056 |  | 1.14 ± 0.031
SCC003 HEADNECK | 1.03 ± 0.13 | 1.04 ± 0.057 | 1.02 ± 0.18 | 1.02 ± 0.036 | 0.879 ± 0.098 | 0.878 ± 0.13 | 0.23 ± 0.034 | 0.206 ± 0.049 |  | 1.09 ± 0.033 | 1.18 ± 0.045 | 1.13 ± 0.062 | 1.12 ± 0.075 | 1.1 ± 0.037 | 1.15 ± 0.036 | 1.1 ± 0.07
